# From patent US10597388B2, “Pyridazinone herbicides” (FMC CORPORATION, priority 2014, dated 2020)
# Columns and labels:
# Format in all cases: in vivo
# [1] = tested on: blackgrass (Alopecurus myosuroides); test: Test A greenhouse herbicide test, postemergence
# Summary of the method: (§1)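 Greenhouse postemergence test: formulated chemicals sprayed on one- to two-leaf plants (2 to 10 cm), grown in loam soil blended with sand. Injury assessed visually about 10 d later against untreated controls, scored 0 (no effect) to 100 (complete control).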
# [2] = tested on: galium (catchweed bedstraw, Galium aparine); test: Test A greenhouse herbicide test, postemergence
# Summary of the method: as §1
# [3] = tested on: barnyardgrass (Echinochloa crus-galli); test: Test C greenhouse herbicide test, pre- and postemergence
# Summary of the method: (§2)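 Each species was treated both before emergence, in a loam–sand soil mix, and after emergence, as 1- to 4-leaf seedlings in peat-based potting medium. Plants stayed in the greenhouse 13 to 15 d, then were scored from 0 (no effect) to 100 (complete control) relative to controls.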
# [4] = tested on: blackgrass (Alopecurus myosuroides); test: as above
# Summary of the method: as §2
# [5] = tested on: galium (catchweed bedstraw, Galium aparine); test: as above
# Summary of the method: as §2
# [6] = tested on: nutsedge, yellow (yellow nutsedge, Cyperus esculentus); test: as above
# Summary of the method: as §2
# [7] = tested on: pigweed (Amaranthus retroflexus); test: as above
# Summary of the method: as §2
# [8] = tested on: ragweed (common ragweed, Ambrosia elatior); test: as above
# Summary of the method: as §2
# [9] = tested on: ryegrass, Italian (Italian ryegrass, Lolium multiflorum); test: as above
# Summary of the method: as §2
# soybean (Glycine max) = test: as above
# Summary of the method: as §2
# [10] = tested on: velvetleaf (Abutilon theophrasti); test: as above
# Summary of the method: as §2
# [11] = tested on: chickweed (common chickweed, Stellaria media); test: Test C greenhouse herbicide test, postemergence
# Summary of the method: (§3)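 Postemergence foliar treatment, 1- to 4-leaf stage (2–18 cm), peat/vermiculite medium; greenhouse 13–15 d; visual rating vs controls, 0 = no effect, 100 = complete control; dash = no result.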
# kochia (Kochia scoparia) = test: Test C greenhouse herbicide test, postemergence; settings: for Plant response rating, Kochia: Postemergence
# Summary of the method: as §3
# [12] = tested on: oat, wild (wild oat, Avena fatua); test: Test C greenhouse herbicide test, postemergence; settings: for Plant response rating, Oat, Wild: Postemergence
# Summary of the method: as §3
# [13] = 125 g ai/ha, 0 to 100 scale where 0 is no effect and 100 is complete control
# [14] = 500 g ai/ha, 0 to 100 scale, 0 is no effect, 100 is complete control
# [15] = Postemergence, 31 g ai/ha, 0 to 100 scale (0 no effect, 100 complete control)
# [16] = Postemergence, 125 g ai/ha, scale 0 to 100, 0 is no effect, 100 is complete control
# [17] = Postemergence, 250 g ai/ha, scale 0 to 100, 0 no effect, 100 complete control, 13 to 15 d
# [18] = Preemergence, 31 g ai/ha, scale 0 to 100, 0 is no effect, 100 is complete control
# [19] = Preemergence, 62 g ai/ha, scale 0 to 100, 0 is no effect, 100 is complete control
# [20] = Preemergence, 125 g ai/ha, scale 0 to 100, 0 is no effect, 100 is complete control
# [21] = Preemergence, 250 g ai/ha, scale 0 to 100, 0 no effect, 100 complete control
# [22] = postemergence, 62 g ai/ha, scale 0 to 100, 0 no effect, 100 complete control
# [23] = 125 g ai/ha, scale 0 to 100, 0 is no effect, 100 is complete control
# [24] = 250 g ai/ha, scale 0 to 100, 0 no effect, 100 complete control, 13 to 15 d
compound,measurement,setting,value
Cc1sc2ccccc2c1-c1c(O)c(Cl)nn(C)c1=O [Compound 89],"Plant response rating, Blackgrass",[1]; [13],30
same,Blackgrass plant response rating,[1]; [14],60
same,"Plant response rating, Galium",[2]; [13],90
same,Galium plant response rating,[2]; [14],90
same,Barnyardgrass plant response rating,[3]; [15],5
same,"Plant response rating, Barnyardgrass",[3]; [16],20
same,"Plant response rating, Barnyardgrass",[3]; [17],40
same,"Plant response rating, Barnyardgrass",[3]; [18],5
same,"Plant response rating, Barnyardgrass",[3]; [19],15
same,"Plant response rating, Barnyardgrass",[3]; [20],25
same,Barnyardgrass plant response rating,[3]; [21],65
same,Barnyardgrass plant response rating,[3]; [22],15
same,Blackgrass plant response rating,[4]; [15],0
same,"Plant response rating, Blackgrass",[4]; [16],0
same,"Plant response rating, Blackgrass",[4]; [17],5
same,"Plant response rating, Blackgrass",[4]; [18],5
same,"Plant response rating, Blackgrass",[4]; [19],40
same,"Plant response rating, Blackgrass",[4]; [20],40
same,Blackgrass plant response rating,[4]; [21],45
same,Blackgrass plant response rating,[4]; [22],0
same,"Plant response rating, Galium",[5]; [16],95
same,"Plant response rating, Galium",[5]; [17],95
same,"Plant response rating, Galium",[5]; [18],95
same,"Plant response rating, Galium",[5]; [19],98
same,"Plant response rating, Galium",[5]; [20],98
same,Galium plant response rating,[5]; [21],98
same,Galium plant response rating,[5]; [22],95
same,"Plant response rating, Nutsedge, Yellow",[6]; [16],70
same,"Plant response rating, Nutsedge, Yellow",[6]; [17],75
same,"Plant response rating, Nutsedge, Yellow",[6]; [18],60
same,"Plant response rating, Nutsedge, Yellow",[6]; [19],75
same,"Plant response rating, Nutsedge, Yellow",[6]; [20],80
same,"Nutsedge, Yellow plant response rating",[6]; [21],90
same,"Nutsedge, Yellow plant response rating",[6]; [22],60
same,"Plant response rating, Pigweed",[7]; [16],80
same,"Plant response rating, Pigweed",[7]; [17],95
same,"Plant response rating, Pigweed",[7]; [18],95
same,"Plant response rating, Pigweed",[7]; [19],100
same,"Plant response rating, Pigweed",[7]; [20],100
same,Pigweed plant response rating,[7]; [21],100
same,Pigweed plant response rating,[7]; [22],75
same,"Plant response rating, Ragweed",[8]; [16],90
same,"Plant response rating, Ragweed",[8]; [17],98
same,"Plant response rating, Ragweed",[8]; [18],30
same,"Plant response rating, Ragweed",[8]; [19],80
same,"Plant response rating, Ragweed",[8]; [20],80
same,Ragweed plant response rating,[8]; [21],90
same,Ragweed plant response rating,[8]; [22],90
same,"Plant response rating, Ryegrass, Italian",[9]; [16],75
same,"Plant response rating, Ryegrass, Italian",[9]; [17],80
same,"Plant response rating, Ryegrass, Italian",[9]; [18],20
same,"Plant response rating, Ryegrass, Italian",[9]; [19],80
same,"Plant response rating, Ryegrass, Italian",[9]; [20],90
same,"Ryegrass, Italian plant response rating",[9]; [21],90
same,"Ryegrass, Italian plant response rating",[9]; [22],75
same,"Plant response rating, Soybean",soybean (Glycine max); [16],0
same,"Plant response rating, Soybean",soybean (Glycine max); [17],0
same,"Plant response rating, Soybean",soybean (Glycine max); [18],0
same,"Plant response rating, Soybean",soybean (Glycine max); [19],0
same,"Plant response rating, Soybean",soybean (Glycine max); [20],0
same,Soybean plant response rating,soybean (Glycine max); [21],5
same,Soybean plant response rating,soybean (Glycine max); [22],0
same,"Plant response rating, Velvetleaf",[10]; [16],75
same,"Plant response rating, Velvetleaf",[10]; [17],80
same,"Plant response rating, Velvetleaf",[10]; [18],70
same,"Plant response rating, Velvetleaf",[10]; [19],80
same,"Plant response rating, Velvetleaf",[10]; [20],90
same,Velvetleaf plant response rating,[10]; [21],85
same,Velvetleaf plant response rating,[10]; [22],75
same,Chickweed plant response rating,[11]; [15],90
same,"Plant response rating, Chickweed",[11]; [16],100
same,"Plant response rating, Chickweed",[11]; [17],100
same,Chickweed plant response rating,[11]; [22],95
same,"Plant response rating, Kochia",kochia (Kochia scoparia); [23],90
same,"Plant response rating, Kochia",kochia (Kochia scoparia); [24],100
same,Kochia plant response rating,kochia (Kochia scoparia); [22],90
same,"Plant response rating, Oat, Wild",[12]; [23],30
same,"Plant response rating, Oat, Wild",[12]; [24],40
same,"Oat, Wild plant response rating",[12]; [22],10
